Assay results taken from patent US9603364B2 (Dow AgroSciences LLC, priority 2013, dated 2017).

Experiments:
Test in all cases: General post-emergent herbicidal activity, foliar application
Assay type in all cases: in vivo
[1] = system: Amaranthus retroflexus L. (pigweed, redroot); conditions: for GR80 Value AMARE: calculated by probit analysis, dose for 80% visual injury, may be extrapolated
Description: (§1) A weighed amount, determined by the highest rate to be tested, of each test compound was placed in a 25 mL glass vial and was dissolved in 4 mL of a 97:3 v/v (volume/volume) mixture of acetone and dimethyl sulfoxide to obtain concentrated stock solutions which will be referred to as General Purpose Solvent. […] The concentrated stock solutions obtained were diluted with 20 mL of an aqueous mixture containing water, General Purpose Solvent, isopropyl alcohol, Atplus 411F crop oil concentrate, and Triton X-155 surfactant in a 46:42:12:1.0:0.02 v/v ratio to obtain spray solutions containing the highest application rates. Additional application rates were obtained by serial dilution of 12 mL of the high rate solution into a solution containing 2 mL of 97:3 v/v (volume/volume) mixture of acetone and dimethyl sulfoxide and 10 mL of an aqueous mixture containing water, General Purpose Solvent, isopropyl alcohol, Atplus 411F crop oil concentrate, and Triton X-155 surfactant in a 46:42:12:1.0:0.02 v/v ratio to obtain 1/2×, 1/4×, 1/8× and 1/16× rates of the high rate. […] Control plants were sprayed in the same manner with the solvent blank.
(§2) The treated plants and control plants were placed in a greenhouse as described above and watered by sub-irrigation to prevent wash-off of the test compounds. After 14 days, the condition of the test plants as compared with that of the untreated plants was determined visually and scored on a scale of 0 to 100 percent where 0 corresponds to no injury and 100 corresponds to complete kill.
(§3) By applying the well-accepted probit analysis as described by J. Berkson in […], 48, 565 (1953) and by D. Finney in “Probit Analysis” Cambridge University Press (1952), the dose response data gathered as expressed above can be used to calculate GR20, GR50 and GR80 values, which are defined as growth reduction factors that correspond to the effective dose of herbicide required to kill or control 20 percent, 50 percent or 80 percent, respectively, of a target plant. Data not expressed in Table A may have been used to calculate some of the GR80 values in Table B. In some cases, the GR80 values may be extrapolations calculated based on the slope of the dose response curve for individual compounds listed in Table B.

[2] = system: Chenopodium album L. (lambsquarters, common); conditions: for GR80 Value CHEAL: calculated by probit analysis, dose for 80% visual injury, may be extrapolated
Description: as §1, §2, §3

[3] = system: Echinochloa crus-galli (L.) Beauv. (barnyardgrass); conditions: for GR80 Value ECHCG: calculated by probit analysis, dose for 80% visual injury, may be extrapolated
Description: as §1, §2, §3

[4] = system: Euphorbia heterophylla L. (poinsettia, wild); conditions: for GR80 Value EPHHL: calculated by probit analysis, dose for 80% visual injury, may be extrapolated
Description: as §1, §2, §3

[5] = system: Helianthus annuus L. (sunflower, common); conditions: for GR80 Value HELAN: calculated by probit analysis, dose for 80% visual injury, may be extrapolated
Description: as §1, §2, §3

[6] = system: Viola tricolor L. (pansy); conditions: for GR80 Value VIOTR: calculated by probit analysis, dose for 80% visual injury, may be extrapolated
Description: as §1, §2, §3

Oryza sativa L. (rice) = conditions: Oryza sativa, 336 h, scored after 14 days, read-out: % Visual Growth Reduction ORYSA
Description: as §1, §2

Zea mays L. (corn) = conditions: 336 h, scored after 14 days, read-out: % Visual Growth Reduction ZEAMX
Description: as §1, §2

Compound: CC(F)c1nc(C(=O)O)c(Cl)c(N)c1F (stereo not drawn) [Compound F30, 4-amino-3-chloro-5-fluoro-6-(1-fluoroethyl)picolinic acid]
- pest or weed control at 70 g/ha ([1]; Amaranthus retroflexus, 336 h, 70 g ai/ha, foliar post-emergent, scored after 14 days, read-out: % Visual Growth Reduction AMARE): 100%
- pest or weed control at 140 g/ha ([1]; Amaranthus retroflexus, 336 h, 140 g ai/ha, foliar post-emergent, scored after 14 days, read-out: % Visual Growth Reduction AMARE): 100%
- pest or weed control at 280 g/ha ([1]; Amaranthus retroflexus, 336 h, 280 g ai/ha, foliar post-emergent, scored after 14 days, read-out: % Visual Growth Reduction AMARE): 100%
- GR80 Value AMARE [1]: 40.6 g ai/ha
- pest or weed control at 70 g/ha ([2]; Chenopodium album, 336 h, 70 g ai/ha, foliar post-emergent, scored after 14 days, read-out: % Visual Growth Reduction CHEAL): 95%
- pest or weed control at 140 g/ha ([2]; Chenopodium album, 336 h, 140 g ai/ha, foliar post-emergent, scored after 14 days, read-out: % Visual Growth Reduction CHEAL): 95%
- pest or weed control at 280 g/ha ([2]; Chenopodium album, 336 h, 280 g ai/ha, foliar post-emergent, scored after 14 days, read-out: % Visual Growth Reduction CHEAL): 100%
- GR80 Value CHEAL [2]: <17.5 g ai/ha
- pest or weed control at 70 g/ha ([3]; Echinochloa crus-galli, 336 h, 70 g ai/ha, foliar post-emergent, scored after 14 days, read-out: % Visual Growth Reduction ECHCG): 0%
- pest or weed control at 140 g/ha ([3]; Echinochloa crus-galli, 336 h, 140 g ai/ha, foliar post-emergent, scored after 14 days, read-out: % Visual Growth Reduction ECHCG): 65%
- pest or weed control at 280 g/ha ([3]; Echinochloa crus-galli, 336 h, 280 g ai/ha, foliar post-emergent, scored after 14 days, read-out: % Visual Growth Reduction ECHCG): 80%
- GR80 Value ECHCG [3]: 239 g ai/ha
- pest or weed control at 70 g/ha ([4]; Euphorbia heterophylla, 336 h, 70 g ai/ha, foliar post-emergent, scored after 14 days, read-out: % Visual Growth Reduction EPHHL): 70%
- pest or weed control at 140 g/ha ([4]; Euphorbia heterophylla, 336 h, 140 g ai/ha, foliar post-emergent, scored after 14 days, read-out: % Visual Growth Reduction EPHHL): 100%
- pest or weed control at 280 g/ha ([4]; Euphorbia heterophylla, 336 h, 280 g ai/ha, foliar post-emergent, scored after 14 days, read-out: % Visual Growth Reduction EPHHL): 100%
- GR80 Value EPHHL [4]: 84.9 g ai/ha
- pest or weed control at 70 g/ha ([5]; Helianthus annuus, 336 h, 70 g ai/ha, foliar post-emergent, scored after 14 days, read-out: % Visual Growth Reduction HELAN): 80%
- pest or weed control at 140 g/ha ([5]; Helianthus annuus, 336 h, 140 g ai/ha, foliar post-emergent, scored after 14 days, read-out: % Visual Growth Reduction HELAN): 90%
- pest or weed control at 280 g/ha ([5]; Helianthus annuus, 336 h, 280 g ai/ha, foliar post-emergent, scored after 14 days, read-out: % Visual Growth Reduction HELAN): 90%
- GR80 Value HELAN [5]: 59.3 g ai/ha
- pest or weed control at 70 g/ha ([6]; Viola tricolor, 336 h, 70 g ai/ha, foliar post-emergent, scored after 14 days, read-out: % Visual Growth Reduction VIOTR): 10%
- pest or weed control at 140 g/ha ([6]; Viola tricolor, 336 h, 140 g ai/ha, foliar post-emergent, scored after 14 days, read-out: % Visual Growth Reduction VIOTR): 25%
- pest or weed control at 280 g/ha ([6]; Viola tricolor, 336 h, 280 g ai/ha, foliar post-emergent, scored after 14 days, read-out: % Visual Growth Reduction VIOTR): 50%
- GR80 Value VIOTR [6]: >280 g ai/ha
- plant injury at 70 g/ha (Oryza sativa L. (rice); 70 g ai/ha): 0%
- plant injury at 140 g/ha (Oryza sativa L. (rice); 140 g ai/ha): 0%
- plant injury at 280 g/ha (Oryza sativa L. (rice); 280 g ai/ha): 0%
- plant injury at 70 g/ha (Zea mays L. (corn); 70 g ai/ha): 100%
- plant injury at 140 g/ha (Zea mays L. (corn); 140 g ai/ha): 100%
- plant injury at 280 g/ha (Zea mays L. (corn); 280 g ai/ha): 100%

Compound: COC(=O)c1nc(C(C)(C)F)c(F)c(N)c1Cl [Compound F8, Methyl 4-amino-3-chloro-5-fluoro-6-(2-fluoropropan-2-yl)picolinate]
- pest or weed control at 40 g/ha ([1]; Amaranthus retroflexus, 336 h, 40 g ai/ha, foliar post-emergent, scored after 14 days, read-out: % Visual Growth Reduction AMARE): 90%
- pest or weed control at 80 g/ha ([1]; Amaranthus retroflexus, 336 h, 80 g ai/ha, foliar post-emergent, scored after 14 days, read-out: % Visual Growth Reduction AMARE): 100%
- pest or weed control at 160 g/ha ([1]; Amaranthus retroflexus, 336 h, 160 g ai/ha, foliar post-emergent, scored after 14 days, read-out: % Visual Growth Reduction AMARE): 100%
- GR80 Value AMARE [1]: 25.1 g ai/ha
- pest or weed control at 40 g/ha ([2]; Chenopodium album, 336 h, 40 g ai/ha, foliar post-emergent, scored after 14 days, read-out: % Visual Growth Reduction CHEAL): 90%
- pest or weed control at 80 g/ha ([2]; Chenopodium album, 336 h, 80 g ai/ha, foliar post-emergent, scored after 14 days, read-out: % Visual Growth Reduction CHEAL): 90%
- pest or weed control at 160 g/ha ([2]; Chenopodium album, 336 h, 160 g ai/ha, foliar post-emergent, scored after 14 days, read-out: % Visual Growth Reduction CHEAL): 90%
- GR80 Value CHEAL [2]: 36.9 g ai/ha
- pest or weed control at 40 g/ha ([3]; Echinochloa crus-galli, 336 h, 40 g ai/ha, foliar post-emergent, scored after 14 days, read-out: % Visual Growth Reduction ECHCG): 0%
- pest or weed control at 80 g/ha ([3]; Echinochloa crus-galli, 336 h, 80 g ai/ha, foliar post-emergent, scored after 14 days, read-out: % Visual Growth Reduction ECHCG): 0%
- pest or weed control at 160 g/ha ([3]; Echinochloa crus-galli, 336 h, 160 g ai/ha, foliar post-emergent, scored after 14 days, read-out: % Visual Growth Reduction ECHCG): 50%
- GR80 Value ECHCG [3]: 213 g ai/ha
- pest or weed control at 40 g/ha ([4]; Euphorbia heterophylla, 336 h, 40 g ai/ha, foliar post-emergent, scored after 14 days, read-out: % Visual Growth Reduction EPHHL): 90%
- pest or weed control at 80 g/ha ([4]; Euphorbia heterophylla, 336 h, 80 g ai/ha, foliar post-emergent, scored after 14 days, read-out: % Visual Growth Reduction EPHHL): 100%
- pest or weed control at 160 g/ha ([4]; Euphorbia heterophylla, 336 h, 160 g ai/ha, foliar post-emergent, scored after 14 days, read-out: % Visual Growth Reduction EPHHL): 100%
- GR80 Value EPHHL [4]: 17.9 g ai/ha
- pest or weed control at 40 g/ha ([5]; Helianthus annuus, 336 h, 40 g ai/ha, foliar post-emergent, scored after 14 days, read-out: % Visual Growth Reduction HELAN): 90%
- pest or weed control at 80 g/ha ([5]; Helianthus annuus, 336 h, 80 g ai/ha, foliar post-emergent, scored after 14 days, read-out: % Visual Growth Reduction HELAN): 90%
- pest or weed control at 160 g/ha ([5]; Helianthus annuus, 336 h, 160 g ai/ha, foliar post-emergent, scored after 14 days, read-out: % Visual Growth Reduction HELAN): 90%
- GR80 Value HELAN [5]: 18.6 g ai/ha
- pest or weed control at 40 g/ha ([6]; Viola tricolor, 336 h, 40 g ai/ha, foliar post-emergent, scored after 14 days, read-out: % Visual Growth Reduction VIOTR): 10%
- pest or weed control at 80 g/ha ([6]; Viola tricolor, 336 h, 80 g ai/ha, foliar post-emergent, scored after 14 days, read-out: % Visual Growth Reduction VIOTR): 50%
- pest or weed control at 160 g/ha ([6]; Viola tricolor, 336 h, 160 g ai/ha, foliar post-emergent, scored after 14 days, read-out: % Visual Growth Reduction VIOTR): 70%
- GR80 Value VIOTR [6]: 185 g ai/ha
- plant injury at 40 g/ha (Oryza sativa L. (rice); 40 g ai/ha): 0%
- plant injury at 80 g/ha (Oryza sativa L. (rice); 80 g ai/ha): 0%
- plant injury at 160 g/ha (Oryza sativa L. (rice); 160 g ai/ha): 8%
- plant injury at 40 g/ha (Zea mays L. (corn); 40 g ai/ha): 0%
- plant injury at 80 g/ha (Zea mays L. (corn); 80 g ai/ha): 0%
- plant injury at 160 g/ha (Zea mays L. (corn); 160 g ai/ha): 0%
